# Values quoted from earlier work as cited in patent US4318847A, “Physiologically active tetrapeptides” (Zaidan Hojin Biseibutsu Kagaku Kenkyu Kai, priority 1979, dated 1982).
# *1 amine or outer side, *2 acyl side, *3 side chain or, on linkers, in order; H or OH if unused. Where a SMILES comes first, the peptide text is derived from it. [ ]: non-standard residue; d: D form. The star is where a group is joined. Sta = CC(C)C[C@H](N)[C@@H](O)CC(=O)O; Isovaleryl = CC(C)CC(=O)*; CO = O=C([*:1])[*:2]
# Legend:
# pepsin = pepsin (Homo sapiens, UniProt P0DJD8); conditions: prior art; cited from earlier work
# pepsin, sequence (P0DJD8 63-388): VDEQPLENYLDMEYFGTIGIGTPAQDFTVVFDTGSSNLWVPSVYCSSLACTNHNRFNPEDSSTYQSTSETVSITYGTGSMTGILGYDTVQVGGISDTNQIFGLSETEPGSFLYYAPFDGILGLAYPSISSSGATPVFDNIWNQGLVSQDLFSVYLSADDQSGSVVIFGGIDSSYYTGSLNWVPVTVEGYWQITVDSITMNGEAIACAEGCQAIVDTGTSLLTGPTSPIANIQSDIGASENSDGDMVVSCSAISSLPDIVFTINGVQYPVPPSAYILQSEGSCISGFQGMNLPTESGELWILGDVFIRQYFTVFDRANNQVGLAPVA
# papain = target: T1, papain (Carica papaya, UniProt P00784); conditions: prior art; cited from earlier work
# T1 sequence (P00784 134-345): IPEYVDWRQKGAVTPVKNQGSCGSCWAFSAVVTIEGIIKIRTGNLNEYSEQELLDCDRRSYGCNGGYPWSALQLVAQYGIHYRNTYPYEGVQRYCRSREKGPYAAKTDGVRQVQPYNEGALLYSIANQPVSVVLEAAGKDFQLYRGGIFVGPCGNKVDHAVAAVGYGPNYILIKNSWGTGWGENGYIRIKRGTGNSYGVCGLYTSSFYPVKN
# trypsin = target: T2, trypsin (Bos taurus, UniProt P00760); conditions: prior art; cited from earlier work
# T2 construct: gene PRSS1
# T2 sequence (P00760 24-246): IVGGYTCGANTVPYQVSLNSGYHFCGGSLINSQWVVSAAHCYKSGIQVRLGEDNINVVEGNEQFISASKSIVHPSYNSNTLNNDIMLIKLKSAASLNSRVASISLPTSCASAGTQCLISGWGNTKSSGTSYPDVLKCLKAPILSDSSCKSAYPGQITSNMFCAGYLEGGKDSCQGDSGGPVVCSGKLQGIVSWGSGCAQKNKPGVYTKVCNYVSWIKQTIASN
# aminopeptidase A = aminopeptidase A (Homo sapiens, UniProt Q07075); conditions: prior art; cited from earlier work
# aminopeptidase A, sequence (Q07075 whole entry, species assumed): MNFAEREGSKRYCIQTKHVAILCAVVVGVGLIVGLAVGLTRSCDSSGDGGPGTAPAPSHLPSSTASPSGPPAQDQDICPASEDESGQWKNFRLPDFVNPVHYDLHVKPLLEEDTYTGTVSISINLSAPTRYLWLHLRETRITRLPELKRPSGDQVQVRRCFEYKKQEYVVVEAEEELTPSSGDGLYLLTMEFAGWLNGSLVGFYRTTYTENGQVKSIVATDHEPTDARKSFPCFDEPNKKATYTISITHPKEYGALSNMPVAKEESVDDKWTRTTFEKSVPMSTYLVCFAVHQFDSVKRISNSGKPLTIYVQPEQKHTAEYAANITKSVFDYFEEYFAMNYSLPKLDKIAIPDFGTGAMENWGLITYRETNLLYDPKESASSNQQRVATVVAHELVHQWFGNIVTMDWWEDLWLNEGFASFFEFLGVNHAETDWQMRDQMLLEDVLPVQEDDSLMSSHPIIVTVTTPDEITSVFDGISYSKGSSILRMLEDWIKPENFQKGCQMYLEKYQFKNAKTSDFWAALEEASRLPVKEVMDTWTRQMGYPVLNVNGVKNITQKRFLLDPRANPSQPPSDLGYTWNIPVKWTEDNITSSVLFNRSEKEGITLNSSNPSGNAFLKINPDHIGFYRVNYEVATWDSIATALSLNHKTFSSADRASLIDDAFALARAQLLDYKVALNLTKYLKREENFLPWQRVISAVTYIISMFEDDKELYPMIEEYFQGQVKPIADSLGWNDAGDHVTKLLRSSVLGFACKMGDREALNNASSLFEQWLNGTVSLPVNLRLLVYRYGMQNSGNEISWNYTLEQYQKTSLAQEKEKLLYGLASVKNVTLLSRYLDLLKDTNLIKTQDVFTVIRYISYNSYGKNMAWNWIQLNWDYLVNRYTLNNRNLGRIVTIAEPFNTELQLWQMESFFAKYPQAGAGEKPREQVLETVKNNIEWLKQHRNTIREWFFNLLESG
# aminopeptidase B = aminopeptidase B (Homo sapiens, UniProt Q9H4A4); conditions: prior art, U.S. Pat. No. 4,029,547; cited from earlier work
# aminopeptidase B, sequence (Q9H4A4 whole entry, species assumed): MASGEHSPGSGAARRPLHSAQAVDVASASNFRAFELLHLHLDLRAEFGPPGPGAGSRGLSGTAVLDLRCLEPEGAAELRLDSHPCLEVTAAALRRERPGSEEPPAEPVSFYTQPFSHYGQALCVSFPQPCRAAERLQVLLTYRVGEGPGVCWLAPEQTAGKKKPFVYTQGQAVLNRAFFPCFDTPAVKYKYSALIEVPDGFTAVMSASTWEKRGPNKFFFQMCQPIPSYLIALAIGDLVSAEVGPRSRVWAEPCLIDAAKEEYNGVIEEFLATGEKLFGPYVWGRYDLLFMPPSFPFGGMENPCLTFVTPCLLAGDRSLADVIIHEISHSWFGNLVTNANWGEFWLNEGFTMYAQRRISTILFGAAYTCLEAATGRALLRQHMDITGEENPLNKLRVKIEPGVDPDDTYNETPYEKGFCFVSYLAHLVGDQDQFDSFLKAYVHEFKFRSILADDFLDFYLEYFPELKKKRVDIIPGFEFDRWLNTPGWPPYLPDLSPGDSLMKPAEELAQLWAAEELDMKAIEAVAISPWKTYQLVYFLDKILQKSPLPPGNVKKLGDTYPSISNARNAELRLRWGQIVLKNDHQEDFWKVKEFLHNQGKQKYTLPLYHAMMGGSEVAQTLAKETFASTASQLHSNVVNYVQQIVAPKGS
# leucine aminopeptidase = leucine aminopeptidase (Homo sapiens, UniProt P28838); conditions: prior art, U.S. Pat. No. 4,029,547; cited from earlier work
# leucine aminopeptidase, sequence (P28838 whole entry): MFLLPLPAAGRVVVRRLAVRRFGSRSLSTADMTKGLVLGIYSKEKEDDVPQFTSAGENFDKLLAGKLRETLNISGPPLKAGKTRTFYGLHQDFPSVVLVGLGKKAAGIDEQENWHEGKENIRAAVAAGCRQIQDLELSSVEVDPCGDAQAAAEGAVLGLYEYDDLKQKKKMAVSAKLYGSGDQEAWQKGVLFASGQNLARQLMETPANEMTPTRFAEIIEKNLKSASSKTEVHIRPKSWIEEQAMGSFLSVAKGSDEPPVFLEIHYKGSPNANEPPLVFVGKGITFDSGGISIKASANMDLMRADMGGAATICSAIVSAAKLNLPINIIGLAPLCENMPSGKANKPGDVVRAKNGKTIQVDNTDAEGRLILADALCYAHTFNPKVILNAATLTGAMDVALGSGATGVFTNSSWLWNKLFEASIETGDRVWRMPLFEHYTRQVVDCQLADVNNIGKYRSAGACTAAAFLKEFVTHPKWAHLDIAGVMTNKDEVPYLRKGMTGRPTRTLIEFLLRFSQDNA
structure (smiles),measurement,setting,value
CC(C)CC(=O)N[C@H](C(=O)N[C@H](C(=O)N[C@@H](CC(C)C)[C@@H](O)CC(=O)N[C@@H](C)C(=O)N[C@@H](CC(C)C)[C@@H](O)CC(=O)O)C(C)C)C(C)C [pepstatin] (Isovaleryl-VV[Sta]A[Sta]-OH),inhibition of pepsin,pepsin,inhibit
CC(C)[C@H](NC(=O)[C@H](CCCNC(=N)N)NC(=O)N[C@@H](Cc1ccccc1)C(=O)O)C(=O)N[C@H](C=O)CCCNC(=N)N [antipain] ({Phe-CO}-Arg-Val-Arg-aldehyde),inhibition of papain,papain,inhibit
CC(=O)N[C@@H](CC(C)C)C(=O)N[C@@H](CC(C)C)C(=O)N[C@H](C=O)CCCNC(=N)N [leupeptin],inhibition of trypsin,trypsin,inhibit
"CC(C)C[C@H](NC(=O)[C@@H](O)[C@H](N)Cc1ccccc1)C(=O)O [Bestatin, [(2S,3R)-3-amino-2-hydroxy-4-phenylbutanoyl]-L-leucine]",inhibition of aminopeptidase A,aminopeptidase A,does not have any inhibitory effect
same,inhibition of aminopeptidase B,aminopeptidase B,inhibits
same,inhibition of leucine aminopeptidase,leucine aminopeptidase,inhibits
